Laboratory results: the supplement of paper PMC5412046
Counter-ions that a name gives are not always drawn.

Tests used:
SB.mhdgc-1 [1] = experiment: area under the dose-response curve of % viability (trapezoidal, 11 doses) (% viability x log10 concentration); higher = less cytotoxic; conditions: SB.mhdgc-1 (hereditary c.1380delA CDH1 gastric cancer)
In short: (§1)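 Compound in DMSO was pinned (23 nL) at 11 threefold-diluted concentrations into wells containing 500 patient-derived gastric cancer cells, hereditary or sporadic, in 5 μL medium per 1536 well. Cells were incubated for 48 h, then exposed to CellTiter-Glo for 30 min at room temperature. Luminescence was measured on a ViewLux. The values are viability normalised to DMSO, either at the highest concentration or as trapezoidal area under the curve.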

SB.msgc-1 [2] = experiment: as above; conditions: SB.msgc-1 (sporadic gastric cancer)
In short: as §1

SB.mhdgc-1 [3] = experiment: viability at highest tested concentration (MAXR) relative to DMSO; higher = less cytotoxic; conditions: SB.mhdgc-1 (hereditary c.1380delA CDH1 gastric cancer)
In short: as §1

SB.msgc-1 [4] = experiment: as above; conditions: SB.msgc-1 (sporadic gastric cancer)
In short: as §1

## CO[C@@]12[C@H](COC(N)=O)C/3=C(N1C[C@@H]4N[C@H]24)/C(=O)/C(=C(N)\C3=O)C [Mitomycin] (top concentration 46.0829 µM)
SB.mhdgc-1 [1]
  area under the dose-response curve: 199
SB.msgc-1 [2]
  area under the dose-response curve: 362
SB.mhdgc-1 [3]
  viability: 12.4%
SB.msgc-1 [4]
  viability: 42.1%

## CCOC(=O)c1c(C)n(C)c2ccc(O)cc12 [Mecarbinate] (top concentration 46.0829 µM)
SB.mhdgc-1 [1]
  area under the dose-response curve: 489
SB.msgc-1 [2]
  area under the dose-response curve: 550
SB.mhdgc-1 [3]
  viability: 50.7%
SB.msgc-1 [4]
  viability: 93.5%

## NC(CO)(CO)CCc1ccc(Sc2cccc(OCc3ccccc3)c2)cc1Cl [KRP 203] (top concentration 46.0829 µM)
SB.mhdgc-1 [1]
  area under the dose-response curve: 453
SB.msgc-1 [2]
  area under the dose-response curve: 486
SB.mhdgc-1 [3]
  viability: 4.12%
SB.msgc-1 [4]
  viability: 2.25%

## CC(=O)N1CCN(c2ccc(OC[C@H]3CO[C@](Cn4ccnc4)(c4ccc(Cl)cc4Cl)O3)cc2)CC1 [Ketoconazole] (top concentration 46.0829 µM)
SB.mhdgc-1 [1]
  area under the dose-response curve: 532
SB.msgc-1 [2]
  area under the dose-response curve: 536
SB.mhdgc-1 [3]
  viability: 49.6%
SB.msgc-1 [4]
  viability: 53.7%

## CN(C)CC(C)(C)CNc1nn2c(-c3ccccc3)nnc2cc1C1CCC1 [Akt-I-1] (top concentration 46.0829 µM)
SB.mhdgc-1 [1]
  area under the dose-response curve: 381
SB.msgc-1 [2]
  area under the dose-response curve: 528
SB.mhdgc-1 [3]
  viability: 30.8%
SB.msgc-1 [4]
  viability: 67.5%

## O=C(Nc1c[nH]nc1-c1nc2cc(CN3CCOCC3)ccc2[nH]1)NC1CC1 [AT-9283] (top concentration 46.0829 µM)
SB.mhdgc-1 [1]
  area under the dose-response curve: 388
SB.msgc-1 [2]
  area under the dose-response curve: 455
SB.mhdgc-1 [3]
  viability: 51%
SB.msgc-1 [4]
  viability: 42.1%

## C=C(c1ccc(C(=O)O)cc1)c1cc2c(cc1C)C(C)(C)CCC2(C)C [Bexarotene] (top concentration 46.0829 µM)
SB.mhdgc-1 [1]
  area under the dose-response curve: 513
SB.msgc-1 [2]
  area under the dose-response curve: 457
SB.mhdgc-1 [3]
  viability: 108%
SB.msgc-1 [4]
  viability: 68.6%

## CC(C)(O)[C@H]1CC[C@@](C)([C@H]2[C@@H](O)C[C@@]3(C)[C@@H]4C[C@H](O[C@@H]5O[C@H](CO)[C@@H](O)[C@H](O)[C@H]5O)[C@H]5C(C)(C)[C@@H](O[C@@H]6OC[C@@H](O)[C@H](O)[C@H]6O)CC[C@@]56C[C@@]46CC[C@]23C)O1 [Astragaloside A] (top concentration 46.0829 µM)
SB.mhdgc-1 [1]
  area under the dose-response curve: 558
SB.msgc-1 [2]
  area under the dose-response curve: 559
SB.mhdgc-1 [3]
  viability: 86.5%
SB.msgc-1 [4]
  viability: 87.9%

## Cl.Cl.Clc1ccc(Nc2nnc(Cc3ccncc3)c3ccccc23)cc1 [Vatalanib] (top concentration 46.0829 µM)
SB.mhdgc-1 [1]
  area under the dose-response curve: 417
SB.msgc-1 [2]
  area under the dose-response curve: 481
SB.mhdgc-1 [3]
  viability: 32.5%
SB.msgc-1 [4]
  viability: 53.2%

## COc1nc(C)cnc1N[S+](=O)([O-])c1cccnc1-c1ccc(-c2nnco2)cc1 [Zibotentan] (top concentration 46.0829 µM)
SB.mhdgc-1 [1]
  area under the dose-response curve: 547
SB.msgc-1 [2]
  area under the dose-response curve: 589
SB.mhdgc-1 [3]
  viability: 99.7%
SB.msgc-1 [4]
  viability: 107%

## Cc1cccc(-c2[nH]c(C(C)(C)C)nc2-c2ccc3nccnc3c2)n1 (top concentration 46.0829 µM)
SB.mhdgc-1 [1]
  area under the dose-response curve: 530
SB.msgc-1 [2]
  area under the dose-response curve: 486
SB.mhdgc-1 [3]
  viability: 23.1%
SB.msgc-1 [4]
  viability: 62%

## C[C@H]1C[C@@H]2[C@H](CC[C@@]3(C)[C@H]2CC[C@]3(OC(C)=O)C(C)=O)[C@@]\4(C)CCC(=O)\C=C14 [Medroxyprogesterone acetate] (top concentration 46.0829 µM)
SB.mhdgc-1 [1]
  area under the dose-response curve: 467
SB.msgc-1 [2]
  area under the dose-response curve: 524
SB.mhdgc-1 [3]
  viability: 32.3%
SB.msgc-1 [4]
  viability: 52.2%

## CC1=C(C=CC=C1)N2\C(=N/C3=C(C(=CC=C3)C)C2=O)C[N]4N=CC5=C4N=CN=C5N [PIK-293] (top concentration 46.0829 µM)
SB.mhdgc-1 [1]
  area under the dose-response curve: 377
SB.msgc-1 [2]
  area under the dose-response curve: 321
SB.mhdgc-1 [3]
  viability: 55.1%
SB.msgc-1 [4]
  viability: 26.6%

## CCN(C)C(=O)Oc1cccc([C@H](C)N(C)C)c1 [Rivastigmine tartrate] (top concentration 46.0829 µM)
SB.mhdgc-1 [1]
  area under the dose-response curve: 615
SB.msgc-1 [2]
  area under the dose-response curve: 594
SB.mhdgc-1 [3]
  viability: 106%
SB.msgc-1 [4]
  viability: 125%

## Cc1cnc(C(=O)O)c[n+]1[O-] [Acipimox] (top concentration 46.0829 µM)
SB.mhdgc-1 [1]
  area under the dose-response curve: 589
SB.msgc-1 [2]
  area under the dose-response curve: 545
SB.mhdgc-1 [3]
  viability: 136%
SB.msgc-1 [4]
  viability: 106%

## CN(C)NC(=O)CCC(=O)O [Daminozide] (top concentration 46.0829 µM)
SB.mhdgc-1 [1]
  area under the dose-response curve: 518
SB.msgc-1 [2]
  area under the dose-response curve: 498
SB.mhdgc-1 [3]
  viability: 100%
SB.msgc-1 [4]
  viability: 88%

## COc1ccc2c(c1)CN(C)CC2c1ccc(Cl)c(Cl)c1 (configuration not stated) [Diclofensine] (top concentration 46.0829 µM)
SB.mhdgc-1 [1]
  area under the dose-response curve: 526
SB.msgc-1 [2]
  area under the dose-response curve: 518
SB.mhdgc-1 [3]
  viability: 78.4%
SB.msgc-1 [4]
  viability: 69.1%

## C/C(O)=C(\C#N)C(=O)Nc1cc(Br)ccc1Br [LFM-A13] (top concentration 46.0829 µM)
SB.mhdgc-1 [1]
  area under the dose-response curve: 528
SB.msgc-1 [2]
  area under the dose-response curve: 536
SB.mhdgc-1 [3]
  viability: 93.3%
SB.msgc-1 [4]
  viability: 74%

## Cc1onc(-c2ccccc2Cl)c1C(=O)N[C@@H]1C(=O)N2[C@@H]1SC(C)(C)[C@@H]2C(=O)[O-] [Sodium cloxacillin] (top concentration 46.0829 µM)
SB.mhdgc-1 [1]
  area under the dose-response curve: 513
SB.msgc-1 [2]
  area under the dose-response curve: 606
SB.mhdgc-1 [3]
  viability: 97.4%
SB.msgc-1 [4]
  viability: 121%

## N#CC[C@H](C1CCCC1)n1cc(-c2ncnc3[nH]ccc23)cn1 [Ruxolitinib] (top concentration 46.0829 µM)
SB.mhdgc-1 [1]
  area under the dose-response curve: 522
SB.msgc-1 [2]
  area under the dose-response curve: 497
SB.mhdgc-1 [3]
  viability: 80%
SB.msgc-1 [4]
  viability: 72.3%

## C#CCC(Cc1cnc2nc(N)nc(N)c2n1)c1ccc(C(=O)N[C@@H](CCC(=O)O)C(=O)O)cc1 (some centres not stated) [Pralatrexate] (top concentration 46.0829 µM)
SB.mhdgc-1 [1]
  area under the dose-response curve: 394
SB.msgc-1 [2]
  area under the dose-response curve: 332
SB.mhdgc-1 [3]
  viability: 55.7%
SB.msgc-1 [4]
  viability: 36.8%

## OCCC#Cc1nc(-c2ccc(F)cc2)c(-c2ccncc2)n1CCCc1ccccc1 (top concentration 46.0829 µM)
SB.mhdgc-1 [1]
  area under the dose-response curve: 501
SB.msgc-1 [2]
  area under the dose-response curve: 457
SB.mhdgc-1 [3]
  viability: 38.9%
SB.msgc-1 [4]
  viability: 51.1%

## CN1CCN(c2cc(C(=O)Nc3ccc4c(c3)-c3c(c(C(N)=O)nn3-c3ccc(F)cc3)CC4)c(Cl)cn2)CC1 [PHA-408] (top concentration 46.0829 µM)
SB.mhdgc-1 [1]
  area under the dose-response curve: 441
SB.msgc-1 [2]
  area under the dose-response curve: 443
SB.mhdgc-1 [3]
  viability: 2.85%
SB.msgc-1 [4]
  viability: 18%
